Measurements taken from patent US11505529B2, “8-phenyl-isoquinolines and pharmaceutical composition thereof used in the treatment of irritable bowel syndrome” (NATIONAL TAIWAN UNIVERSITY, priority 2017, dated 2022).
Structures can show the parent of a compound that is named as a salt.

Tests used:
[1] = system: colonic tissues; assay: Colonic histology (adverse response) after treatment in GW and TNBS mice
From the text: Intestinal tissues were fixed in 4% paraformaldehyde (PFA) and embedded in paraffin wax with proper orientation of the crypt to villus axis before sectioning. Sections of 5-μm thickness were deparaffinized with xylene and graded ethanol, stained with hematoxylin and eosin (H&E), and observed under a light microscope.

[2] = system: TNBS mice; assay: Intestinal pain (visceromotor response to colorectal distension) in post-TNBS colitis mice; type: in vivo, C57BL/6 mice; conditions: for intestinal pain (VMR): p.o. single dose 5 mg/kg, 90 minutes before analysis
Experimental: In the second model, intestinal inflammation was induced by intracolonic administration of 10% 2,4,6-trinotrobenzene sulfonic acid (TNBS) in 0.2 ml of 50% ethanol (Sigma-Aldrich, St. Louis, Mo., USA) via a 22-gauge feeding needle. Sham controls were given PBS in the same volume. Intestinal inflammatory parameters and pain levels were measured on various time points after TNBS administration.
For testing of anti-nociceptive effects in the post-TNBS model, mice were administered with novel 5-HT7R ligands by a single dose at 90 or 240 minutes before or by repeated administration of multiple doses for 10 consecutive days prior to intestinal pain measurement.
(§1) Abdominal pain was measured by visceromoter response (VMR) to colorectal distension (CRD) in mice following previously described methods with slight modification (Lu C L, Hsieh J C, Dun N J, et al. Estrogen rapidly modulates 5-hydroxytrytophan-induced visceral hypersensitivity via GPR30 in rats. Gastroenterology 2009; 137:1040-1050; Hong S, Zheng G, Wu X, et al. Corticosterone mediates reciprocal changes in CB 1 and TRPV1 receptors in primary sensory neurons in the chronically stressed rat. Gastroenterology 2011; 140:627-637 e4). Briefly, electrodes made from Teflon-coated stainless steel wire (A-M systems, Carlsborg, Wash.) were implanted in the abdominal external oblique muscles of mice at least 15 days prior to VMR experiments. The electrodes were exteriorized onto the back of the neck. Mice were habituated in the plexiglass cylinder for 30 minutes per day for 3 consecutive days before VMR experiments. The cylinder was used for partial restraint of conscious mice during the CRD experiments. For recording, electrodes were connected to an electromyogram acquisition system (AD instruments, New south wales, Australia). The colon was distended by inflating a balloon catheter inserted intra-anally such that it ended 1.5 cm proximal to the anus. Mice were subjected to four 10-second distensions (15, 40, and 65 mmHg) with 3-min rest intervals. The electromyographic (EMG) activity was amplified and digitized using a transducer (AD instruments) connected to a P511 AC amplifier (Grass instruments, Calif., USA) and Powerlab device with Chart 5 software (AD instruments). The EMG activity was rectified, and the response was recorded as the increase in the area under the curve (AUC) of the EMG amplitude during CRD versus the baseline period.

[3] = system: GW mice; assay: Intestinal pain (visceromotor response to colorectal distension) in mice with Giardia postinfection plus water avoidance stress (GW); type: in vivo, C57BL/6 mice; conditions: for intestinal pain (VMR): p.o. single dose 5 mg/Kg, 90 minutes before analysis
From the text: Two animal models of IBS that had shown visceral hypersensitivity were used in the study, including dual challenge of postinfection combined with psychological stress, and post-inflammation. In the first model, mice were divided into two groups, including one group subjected to dual triggers of Giardia postinfection and water avoidance stress (GW) and the one group pair-fed with saline and non-handled (PN) as uninfected unstressed normal controls. Axenic Giardia lamblia trophozoites (strain GS/M, ATCC 50581) were cultured in vitro and harvested at log-phase as described in Singer et al., (T-cell-dependent control of acute Giardia lamblia infections in mice. Infect. Immun. 2000; 68:170-175) and Davids et al. (Polymeric immunoglobulin receptor in intestinal immune defense against the lumen-dwelling protozoan parasite Giardia. J Immunol 2006; 177:6281-6290). Mice were orally gavaged with 10^7 Giardia trophozoites suspended in 0.2 ml of sterile phosphate-buffered saline (PBS) or pair-fed with the same volume of PBS. The status of Giardia infection was verified after 4-7 days by enumeration of motile trophozoites in the small intestine following a cold-shock protocol (disclosed in Scott K G, Yu L C H, Buret A G. Role of CD8+ and CD4+ T lymphocytes in jejunal mucosal injury during murine giardiasis. Infect. Immun. 2004; 72:3536-3542 and Scott K G, Meddings J B, Kirk D R, et al. Intestinal infection with Giardia spp. reduces epithelial barrier function in a myosin light chain kinase-dependent fashion. Gastroenterology 2002; 123:1179-1190). On the sixth week postinfection in which the trophozoites could not be detected in the small intestine (post-clearance phase), mice were subjected to chronic psychological stress. The procedure of WAS involved placing the mouse on a platform (3×6 cm) in the center of a container (56×50 cm) with 3 cm (vertical height) of room temperature water. Mice remained on the platform for 1 hr to avoid water immersion as a psychological stress without physical harm. The 1-hr stress sessions were carried out for 10 consecutive days to mimic chronic repeated stress, and were performed between 9:00 and 12:00 to minimize the effect of the circadian rhythm. Uninfected and unstressed non-handled animals were kept in their cages as normal controls. On the last day of the stress session, intestinal pain was measured in mice.
For testing of anti-nociceptive effects in the GW model, mice were administered novel 5-HT7R ligands by a single dose 90 or 240 minutes prior to intestinal pain measurement. In additional settings, the novel ligands were repeatedly administered for 10 consecutive days 30 minutes before the start of each stress session and intestinal pain was measured immediately after the last stress session.
as §1, with “The colon was distended by inflating a balloon catheter inserted intra-anally such that it ended 1.5 cm proximal to the anus. Mice were subjected to four 10-second distensions (15, 40, and 65 mmHg) with 3-min rest intervals. The electromyographic (EMG) activity was amplified and digitized using a transducer (AD instruments) connected to a P511 AC amplifier (Grass instruments, Calif., USA) and Powerlab device with Chart 5 software (AD instruments). The EMG activity was rectified, and the response was recorded as the increase in the area under the curve (AUC) of the EMG amplitude during CRD versus the baseline period.” left out

[4] = biological target: 5-HT2AR (Homo sapiens, UniProt P28223); assay: 5-HT2A receptor binding affinity
[5] = log D; type: physicochemical
[6] = biological target: 5-HT7R (Homo sapiens, UniProt P34969); assay: 5-HT7 receptor binding affinity
Sequence of 5-HT7R (P34969 whole entry): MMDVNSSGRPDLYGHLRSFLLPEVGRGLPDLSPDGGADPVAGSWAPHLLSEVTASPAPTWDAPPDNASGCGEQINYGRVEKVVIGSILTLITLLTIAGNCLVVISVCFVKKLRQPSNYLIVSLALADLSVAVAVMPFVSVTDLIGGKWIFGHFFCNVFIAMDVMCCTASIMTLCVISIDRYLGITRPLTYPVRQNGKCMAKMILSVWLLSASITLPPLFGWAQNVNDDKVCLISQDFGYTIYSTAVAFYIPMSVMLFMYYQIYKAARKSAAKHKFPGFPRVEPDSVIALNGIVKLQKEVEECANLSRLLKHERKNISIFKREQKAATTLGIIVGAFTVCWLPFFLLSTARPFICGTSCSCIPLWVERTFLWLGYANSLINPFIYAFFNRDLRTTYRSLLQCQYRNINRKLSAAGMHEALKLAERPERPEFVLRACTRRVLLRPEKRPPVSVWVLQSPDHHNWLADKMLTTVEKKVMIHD

Sequence of 5-HT2AR (P28223 whole entry): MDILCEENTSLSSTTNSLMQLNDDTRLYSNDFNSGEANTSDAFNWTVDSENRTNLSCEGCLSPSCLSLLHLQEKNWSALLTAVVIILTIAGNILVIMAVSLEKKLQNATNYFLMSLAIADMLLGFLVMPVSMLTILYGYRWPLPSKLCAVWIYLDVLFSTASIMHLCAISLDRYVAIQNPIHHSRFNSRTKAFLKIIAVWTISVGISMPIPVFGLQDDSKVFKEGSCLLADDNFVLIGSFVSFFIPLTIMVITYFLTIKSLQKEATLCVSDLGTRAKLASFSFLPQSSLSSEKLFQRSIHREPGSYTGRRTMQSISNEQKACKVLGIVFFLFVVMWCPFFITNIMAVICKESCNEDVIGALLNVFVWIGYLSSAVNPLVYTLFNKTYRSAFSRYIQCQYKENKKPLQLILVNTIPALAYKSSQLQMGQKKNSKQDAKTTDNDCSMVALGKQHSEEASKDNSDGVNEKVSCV

| SMILES | intestinal pain (VMR) [2] | intestinal pain (VMR) ([3]; GW mice) | Ki [4] [nM] | logD [5] | Ki [6] [nM] | also measured |
| --- | --- | --- | --- | --- | --- | --- |
| Cc1[nH]cnc1CN1CCc2c(c3ccccc3n2C)C1=O [ALN, alosetron hydrochloride] | had no effect on intestinal pain | reduced intestinal pain but was less efficient compared to compound 8 | – | – | – | mice with hyperemia and granulocyte infiltration in the colonic tissues ([1]; C57BL/6, mouse, in vivo): 14%; colonic histology ([1]; p.o. 5 mg/Kg, GW and TNBS mice, hydrochloride, 5 mg/kg): Hyperemia (*) and granulocyte infiltration (arrowheads) were observed |
| COc1ccc(-c2c(O)c(OC)cc3c2CN(CCc2ccccc2F)CC3)c(OC)c1 [Compound 6] | – | – | 2.2 | 3.98 | 3.5 | – |
| COc1ccccc1-c1c(O)c(OC)cc2c1CN(CCCc1ccc([N+](=O)[O-])cc1)CC2 [Compound 7, 6-methoxy-8-(2-methoxyphenyl)-2-(3-(4-nitrophenyl)propyl)-1,2,3,4-tetrahydroisoquinolin-7-ol] | – | – | 70 | 3.66 | 1.4 | – |
| COc1ccccc1-c1c(O)c(OC)cc2c1CN(CCCc1ccncc1)CC2 [Compound 8, 6-methoxy-8-(2-methoxyphenyl)-2-(3-(pyridin-4-yl)propyl)-1,2,3,4-tetrahydroisoquinolin-7-ol] | – | strongest inhibition of intestinal pain to baseline levels | > 1000 | 1.68 | 5.8 | intestinal pain after repeated administration ([2]; multiple doses): reduced intestinal pain; intestinal pain, time response ([3]; GW mice, 5 mg/kg p.o. at 1.5, 4 or 12 hours prior to pain measurement): Reduction of pain levels was seen at three time points; intestinal pain, dose response ([3]; GW mice, i.p. at 0.05 and 0.5 mg/kg, 90 minutes before analysis (FIG. 9A)): Dose-dependent analgesic effects; intestinal pain, dose response ([3]; GW mice, p.o. at 1.5 and 5 mg/kg, 90 minutes before analysis (FIG. 9B)): Dose-dependent analgesic effects; intestinal pain after repeated administration ([3]; GW mice, p.o. multiple doses over 10 days): decreased intestinal pain in GW mice in a dose-dependent manner |
| COc1ccccc1-c1c(O)c(OC)cc2c1CN(CCCc1cccnc1)CC2 [Compound 9, 6-methoxy-8-(2-methoxyphenyl)-2-(3-(pyridin-3-yl)propyl)-1,2,3,4-tetrahydroisoquinolin-7-ol] | – | – | > 1000 | 1.7 | 4.9 | – |
| COc1ccccc1-c1c2c(cc(OC)c1OC)CCN(CCCc1ccncc1)C2 [Compound 10, 6,7-dimethoxy-8-(2-methoxyphenyl)-2-(3-(pyridin-4-yl)propyl)-1,2,3,4-tetrahydroisoquinoline] | – | – | > 1000 | 2.93 | 7.1 | – |
| CN(C)C(=O)C(CCN1CCC(O)(c2ccc(Cl)cc2)CC1)(c1ccccc1)c1ccccc1 [LPM, loperamide hydrochloride, reference compound] | had no effect on intestinal pain | had no effect on intestinal nociception | – | – | – | – |
| CC1CCN(CC[C@H]2CCCN2S(=O)(=O)c2cccc(O)c2)CC1.Cl [SB7, SB-269970 hydrochloride, reference compound] | had no effect on intestinal pain | had no effect on intestinal nociception | – | – | – | intestinal pain measured by VMR ([3]; i.p., 0.5 mg/Kg, IBS-like mouse model (FIG. 7)): significantly inhibited intestinal pain levels |
